{
  "source": "patent US20220409657A1",
  "about": "“INSTRUCTIONS FOR COMPOSITION AND SENSITIVITY” (Azura Ophthalmics Ltd., priority 2020, published 2022)",
  "key": {"human subjects [1]": {"test_system": "human subjects", "from_the_text": "In a clinical study three different concentrations were used; 0.1 wt. %, (10 subjects) 0.5 wt. % (12 subjects) and 1 wt. % (26 subjects)."}, "human subjects [2]": {"test_system": "human subjects", "details": "in vivo", "from_the_text": "An additional 2 or 3 additional cases of adverse effects. Of these subjects, 2 had keratitis following the 1st in-office application and another patient deteriorate following the 2nd in-office application although the subject kept on another dose or two at home before coming with pain to be examined (a typical scenario when keratitis evolves)."}, "human subject": {"test_system": "human subject", "experimental": "In most instances, the treatment is applied on a biweekly basis, however some patients move to daily application based on prespecified protocol criteria. Because the ointment-based composition is known to mix with tear fluid and cause blurry vision, individuals in this study are advised to apply the treatment prior to bed so as to avoid risks associated with reduced vision acuity. […] The in-office applications are conducted at specific, pre-determined time points. In these instances, the treatment is not applied before bed but rather is performed during daylight hours."}, "study patients": {"test_system": "study patients", "details": "in vivo", "experimental": "In a first study patients were instructed to dose in both the evening, between visits, and in the daytime during regular scheduled clinic visits as part of the study protocol. Study patients received a 2-week run-in on a placebo which was administered twice weekly for a period of two weeks.\nAdverse events comprise a feeling of grittiness, foreign body feeling, stinging, blurry vision, redness, tired eyes, water eyes, irritation, lid abnormalities, burning, corneal abrasion, photophobia, staining, or dry eye disorder (DED)."}, "[3]": {"test_system": "meibomian gland disorder (MGD) patients", "details": "twice a week, 3 month time point", "experimental": "The drug was applied twice a week and final evaluation was done at the 3 month time point in which the primary outcome of Meibomian Gland Score (MGS) was assessed."}, "rabbits": {"test_system": "rabbits", "details": "dose about 4 mg, concentration up to 2.5 wt. %, ointment over the eyelid margin"}, "animals": {"test_system": "animals", "details": "in vivo; cited from earlier work"}, "seborrheic blepharitis": {"test_system": "seborrheic blepharitis", "details": "cited from earlier work"}, "[4]": {"details": "in vivo; cited from earlier work"}},
  "note": "Like-named read-outs stand apart in the source and are kept apart here.",
  "data": [
    {"substance": "selenium disulfide [SeS2]", "values": [
      {"measurement": "adverse events during the first month", "setting": "human subjects [1]; human, in vivo", "result": "no adverse events"},
      {"measurement": "initiation of pain after the application", "setting": "human subjects [1]; human, in vivo", "result": "6 to 20", "unit": "h"},
      {"measurement": "keratitis after in-office, daytime applications", "setting": "human subjects [1]; human, in vivo", "result": "no development of keratitis"},
      {"measurement": "keratitis in bedtime applications", "setting": "human subjects [1]; human, in vivo", "result": "without a single occurrence of keratitis"},
      {"measurement": "subjects who developed keratitis or keratitis related symptoms", "setting": "human subjects [1]; human, in vivo", "result": "four"},
      {"measurement": "time from in-office morning application to significant pain", "setting": "human subjects [1]; human, in vivo", "result": "About 7 hours"},
      {"measurement": "total OSDI, VAS and SPEED", "setting": "human subjects [1]; one patient, 1 wt. %, first month, twice weekly at home before bedtime", "result": "significant improvement"},
      {"measurement": "additional cases of adverse effects", "setting": "human subjects [2]", "result": "2-3 cases"},
      {"measurement": "subjects with keratitis following the 1st in-office application", "setting": "human subjects [2]", "result": 2, "unit": "subjects"},
      {"measurement": "keratitis", "setting": "human subject; 0.1 wt. % concentration", "result": "Keratitis is not observed"},
      {"measurement": "keratitis", "setting": "human subject; 0.5 wt. % concentration", "result": "Keratitis is not observed"},
      {"measurement": "patients noting symptoms of keratitis", "setting": "human subject; 1 wt. % cohort, following in-office assessment", "result": "four"},
      {"measurement": "bedtime applications resulting in keratitis", "setting": "human subject; 400 or more bedtime applications", "result": "none"},
      {"measurement": "health outcomes by OSDI, VAS and SPEED", "setting": "human subject; at least one patient, one month of treatment, 1 wt. %", "result": "improved health outcomes"},
      {"measurement": "time from in-office assessment to significant pain near the treated area", "setting": "human subject; one patient, 1 wt. %", "result": "≤ 7", "unit": "h"},
      {"measurement": "reduction in the incidence of ocular adverse events", "setting": "study patients", "result": 75, "unit": "%"},
      {"measurement": "reduction of discontinuations from adverse events (DC for AE)", "setting": "study patients", "result": "at least 50%"},
      {"measurement": "reduction of rates of ocular adverse events (ocular AE)", "setting": "study patients", "result": "at least 50%"},
      {"measurement": "average change from baseline in Meibomian Gland Score (MGS)", "setting": "[3]; 9 patients using finger", "result": "10 (+/− 8.2)"},
      {"measurement": "average change from baseline in Meibomian Gland Score (MGS)", "setting": "[3]; 13 patients using applicator", "result": "2.3 (+/− 4.4)"},
      {"measurement": "tolerability", "setting": "rabbits", "result": "well tolerated"},
      {"measurement": "safe concentration for use in humans", "setting": "animals", "result": 0.5, "unit": "%"},
      {"measurement": "treatment of seborrheic blepharitis", "setting": "seborrheic blepharitis; SeS2 0.5%", "result": "effective"},
      {"measurement": "adverse events following topical ocular use", "setting": "seborrheic blepharitis; human, in vivo", "result": "superficial punctate keratitis and conjunctivitis"},
      {"measurement": "contact dermatitis", "setting": "[4]", "result": "can produce contact dermatitis"},
      {"measurement": "contact or photo-contact dermatitis in tinea versicolor treatment", "setting": "[4]", "result": "None of the investigators encountered a single case"},
      {"measurement": "hair loss after shampooing", "setting": "[4]", "result": "diffuse hair loss"},
      {"measurement": "skin reaction after shampoo applied three consecutive nights", "setting": "[4]", "result": "developed circumscribed eczematous plaques"}
    ]}
  ]
}
